# Laboratory results taken from patent US7183278B1 (priority 1998, dated 2007).
# Tested on: rice blast fungi (Pyricularia oryze)
# Assay: whole plant or invertebrate
# Format: in vivo
# Conditions: 144 h, read-out: protective value
row,Compound,pest or weed control at 100 ppm [%]
1,"COc1ccnc(C(=O)Nc2ccc(Oc3ccccc3)cc2)c1O [Example 9, 3-Hydroxy-4-methoxy-4′-phenoxypicolinanilide]",80 to 100
2,"COc1ccnc(C(=O)NCCC2CCCCC2)c1O [Example 63, 3-Hydroxy-4-methoxy-N-(2′-cyclohexylethyl)picolinamide]",80 to 100
3,"COc1ccnc(C(=O)NC2CCCCCCC2)c1O [Example 43, 3-Hydroxy-4-methoxy-N-cyclooctylpicolinamide]",80 to 100
4,"COc1ccnc(C(=O)Nc2ccc(Cl)cc2)c1O [Example 61, 3-Hydroxy-4-methoxy-4′-chloropicolinanilide]",80 to 100
5,"COc1ccnc(C(=O)Nc2ccc(C3CCCCC3)cc2)c1O [Example 49, 3-Hydroxy-4-methoxy-4′-cyclohexylpicolinanilide]",80 to 100
6,"CCCCCCCCNC(=O)c1nccc(OC)c1O [Example 86, 3-Hydroxy-4-methoxy-N-(n-octyl)picolinamide]",80 to 100
7,"COc1ccnc(C(=O)Nc2ccc(OCc3ccccc3)cc2)c1O [Example 39, 3-Hydroxy-4-methoxy-4′-benzyloxypicolinanilide]",80 to 100
8,"COc1ccnc(C(=O)NCC2CCCCC2)c1O [Example 75, 3-Hydroxy-4-methoxy-N-(cyclohexylmethyl)picolinamide]",80 to 100
9,"COc1ccnc(C(=O)NCc2ccc(Oc3ccccc3)cc2)c1O [Example 71, 3-Hydroxy-4-methoxy-N-(4′-phenoxybenzyl)picolinamide]",80 to 100
10,"COc1ccnc(C(=O)Nc2ccc(Oc3ccccc3)c(C)c2)c1O [Example 23, 3-Hydroxy-4-methoxy-3′-methyl-4′-phenoxypicolinanilide]",80 to 100
11,"COc1ccnc(C(=O)NC2CCCCCC2)c1O [Example 57, 3-Hydroxy-4-methoxy-N-cycloheptylpicolinamide]",80 to 100
12,"COc1ccnc(C(=O)Nc2ccc(OC(F)(F)F)cc2)c1O [Example 116, 3-Hydroxy-4-methoxy-4′-trifluoromethoxypicolinanilide]",80 to 100
13,"COc1ccnc(C(=O)NC2CCCCCCCCCCC2)c1O [Example 42, 3-Hydroxy-4-methoxy-N-cyclododecylpicolinamide]",80 to 100
14,"COc1ccnc(C(=O)NCCC(C)(C)C)c1O [Example 88, 3-Hydroxy-4-methoxy-N-(3′,3′-dimethylbutyl)picolinamide]",80 to 100
15,"COc1ccnc(C(=O)Nc2cc(C(C)(C)C)cc(C(C)(C)C)c2)c1O [Example 38, 3-Hydroxy-4-methoxy-3′,5′-di-t-butylpicolinanilide]",80 to 100
16,"COc1ccnc(C(=O)Nc2cc(F)cc(F)c2)c1O [Example 122, 3-Hydroxy-4-methoxy-3′,5′-difluoropicolinanilide]",80 to 100
17,"COc1ccnc(C(=O)Nc2ccc(Cc3ccccc3)cc2)c1O [Example 13, 3-Hydroxy-4-methoxy-4′-benzylpicolinanilide]",80 to 100
18,"COc1ccnc(C(=O)Nc2ccccc2Oc2ccccc2)c1O [Example 12, 3-Hydroxy-4-methoxy-2′-phenoxypicolinanilide]",80 to 100
19,"COc1ccnc(C(=O)NC(C)c2ccccc2)c1O (stereo not shown) [Example 69, 3-Hydroxy-4-methoxy-N-(1′-phenylethyl)picolinamide]",80 to 100
20,"COc1ccnc(C(=O)Nc2ccc(Oc3ccccc3)c(C(F)(F)F)c2)c1O [Example 22, 3-Hydroxy-4-methoxy-4′-phenoxy-3′-trifluoromethylpicolinanilide]",80 to 100
21,"COc1ccnc(C(=O)Nc2ccccn2)c1O [Example 126, 3-Hydroxy-4-methoxy-N-(2-pyridyl)picolinamide]",80 to 100
22,"COc1ccnc(C(=O)Nc2ccc(CC(C)(C)C)cc2)c1O [Example 125, 3-Hydroxy-4-methoxy-4′-neopentylpicolinanilide]",80 to 100

row,Compound,pest or weed control at 100 ppm [%]
1,"COc1ccnc(C(=O)Nc2ccc(C)cc2)c1O [Example 123, 3-Hydroxy-4-methoxy-4′-methylpicolinanilide]",80 to 100
2,"O=C(Nc1ccc(Oc2ccccc2)cc1)c1ncccc1O [Example 1, 3-Hydroxy-4′-phenoxypicolinanilide]",80 to 100
3,"COc1ccnc(C(=O)Nc2c(C)cc(Oc3ccccc3)cc2C)c1O [Example 55, 3-Hydroxy-4-methoxy-2′,6′-dimethyl-4′-phenoxypicolinanilide]",80 to 100
4,"COc1ccnc(C(=O)Nc2ccc(Oc3ccccc3)c(Cl)c2)c1O [Example 21, 3-Hydroxy-4-methoxy-3′-chloro-4′-phenoxypicolinanilide]",80 to 100
5,"COc1ccnc(C(=O)Nc2ccccc2)c1O [Example 60, 3-Hydroxy-4-methoxypicolinanilide]",80 to 100
6,"COc1ccnc(C(=O)Nc2ccc(F)cc2)c1O [Example 120, 3-Hydroxy-4-methoxy-4′-fluoropicolinanilide]",80 to 100
7,"COc1ccnc(C(=O)NC(C)(C)c2ccccc2)c1O [Example 70, 3-Hydroxy-4-methoxy-N-(1′-methyl-1′-phenylethyl)picolinamide]",80 to 100
8,"COc1ccnc(C(=O)NC23CC4CC(CC(C4)C2)C3)c1O [Example 45, 3-Hydroxy-4-methoxy-N-(1-adamantyl)picolinamide]",80 to 100
9,"COc1ccnc(C(=O)NCCC2=CCCCC2)c1O [Example 53, 3-Hydroxy-4-methoxy-N-(2′-(1-cyclohexenyl)ethyl)picolinamide]",80 to 100
10,"COc1ccnc(C(=O)NC2CCC2)c1O [Example 81, 3-Hydroxy-4-methoxy-N-cyclobutylpicolinamide]",80 to 100
11,"COc1ccnc(C(=O)NC2CCCC2)c1O [Example 79, 3-Hydroxy-4-methoxy-N-cyclopentylpicolinamide]",80 to 100
12,"COc1ccnc(C(=O)Nc2cccc(Oc3ccccc3)c2)c1O [Example 11, 3-Hydroxy-4-methoxy-3′-phenoxypicolinanilide]",80 to 100
13,"COc1ccnc(C(=O)NC(C)c2cccc3ccccc23)c1O (stereo not shown) [Example 30, 3-Hydroxy-4-methoxy-N-(1′-(1-naphthyl)ethyl)picolinamide]",80 to 100
14,"CCCCCCNC(=O)c1nccc(OC)c1O [Example 83, 3-Hydroxy-4-methoxy-N-(n-hexyl)picolinamide]",80 to 100
15,"COc1ccnc(C(=O)Nc2ccc(C(F)(F)F)cc2)c1O [Example 115, 3-Hydroxy-4-methoxy-4′-trifluoromethylpicolinanilide]",80 to 100
16,"COc1ccnc(C(=O)NC2CCCCC2)c1O [Example 59, 3-Hydroxy-4-methoxy-N-cyclohexylpicolinamide]",80 to 100
17,"COc1ccnc(C(=O)NC2CCC(C)CC2)c1O (stereo not shown) [Example 78, 3-Hydroxy-4-methoxy-N-(4′-methylcyclohexyl)picolinamide]",80 to 100
18,"COc1ccnc(C(=O)Nc2ccc(C)cc2F)c1O [Example 121, 3-Hydroxy-4-methoxy-2′-fluoro-4′-methylpicolin-anilide]",80 to 100
19,"COc1ccnc(C(=O)Nc2ccc3c(c2)OCCO3)c1O [Example 51, 3-Hydroxy-4-methoxy-(3′,4′-ethylenedioxy)picolinanilide]",80 to 100
20,"CCC(C)NC(=O)c1nccc(OC)c1O (stereo not shown) [Example 82, 3-Hydroxy-4-methoxy-N-(sec-butyl)picolinamide]",80 to 100
21,"COc1ccnc(C(=O)Nc2ccc(C(C)(C)C)cc2)c1O [Example 114, 3-Hydroxy-4-methoxy-4′-t-butylpicolinanilide]",80 to 100
